Laboratory results published in ChEMBL document CHEMBL4000157, “Total Synthesis of (±)-Kuwanol E” (J Nat Prod, 2016).

Test: Inhibition of wild type recombinant Mycobacterium tuberculosis PTPB using p-nitrophenyl phosphate as substrate preincubated for 10 mins followed by substrate addition measured for 10 mins by UV-VIS spectrophotometer

CC(C)=CCc1c(O)ccc(C(=O)[C@@H]2[C@@H](c3ccc(O)cc3O)CC(C)=C[C@H]2c2c(O)cc(/C=C/c3ccc(O)cc3O)cc2O)c1O
Ki: 1.6 µM
